The values below come from publication PMC6471427, “Halogen-Substituted Triazolethioacetamides as a Potent Skeleton for the Development of Metallo-β-Lactamase Inhibitors” (Molecules, 2019).

Where two headings read alike, the source gives them in different places.

In one test the target is MβLs. Also on record: method as in PMID 11564740. The conditions noted are these: broad spectrum MβLs inhibitor; read-out: Ki against MβLs; cited from earlier work.
The target of a further test is T1, NDM-1 (Klebsiella pneumoniae, UniProt C7C422).
T1 construct: made in house
T1 sequence (C7C422 29-270, looked up, species assumed): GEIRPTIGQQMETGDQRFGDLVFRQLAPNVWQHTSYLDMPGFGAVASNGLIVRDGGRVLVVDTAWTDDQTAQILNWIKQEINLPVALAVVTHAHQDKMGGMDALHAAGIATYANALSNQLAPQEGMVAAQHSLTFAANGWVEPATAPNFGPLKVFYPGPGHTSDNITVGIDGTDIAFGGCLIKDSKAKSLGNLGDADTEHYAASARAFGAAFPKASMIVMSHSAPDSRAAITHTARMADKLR
Nature of the test: Inhibition of NDM-1 with cefazolin as substrate (UV-vis kinetics). Format: biochemical. The conditions noted are these: read-out: IC50 against NDM-1. The text has this: (§1) To test whether these halogen-substituted triazolethioacetamides were inhibitors of the MβLs, three subclasses MβLs B1(VIM-2 and NDM-1), B2 (ImiS), and B3 (L1) were expressed and purified as previously described. […] On the whole, triazolethioacetamides containing chlorine (1–8) increase the inhibitory potency slightly on average compared to those containing fluorine (9–12), but the presence of trifluoromethoxy (13) is beneficial to increase the inhibitory activity. […] Furthermore, replacement of two hydrogen at the anilino group with chlorine (4 and 5) or fluorine (12) relatively reduces the inhibitory activity, especially compound 12 with two fluorine at 2,5-position of anilino group.
(§2) The inhibition studies were carried out on an Agilent UV 8453 spectrophotometer at 25 °C using cefazolin as substrate of […], NDM-1, and L1 and imipenem as substrate of ImiS. Inhibitors 1–13 were dissolved in DMSO and then diluted with Tris-HCl, pH 7.0. The substrate concentrations were varied between 25 and 400 μM, and inhibitor concentrations were varied between 125 nM and 1 mΜ. The enzyme and inhibitor were pre-incubated for 30 min before starting the kinetic experiments. The IC50 values for all analyzed compounds were calculated based on the kinetic data. The mode of inhibition was determined by generating Lineweaver-Burk plots of the data, and the Ki was determined by replotting the data for slope and intercept versus […].

The next test addresses T2, ImiS (Aeromonas veronii, UniProt O31272).
T2 construct: made in house
Put plainly: Inhibition of ImiS-catalysed hydrolysis of imipenem (UV-vis kinetics; IC50, Ki, mode). Type of test: biochemical. The conditions noted are these: for Inhibition mode against ImiS: Lineweaver-Burk plots.
From the text: as §1, §2

The next test concerns the target T3, VIM-2 (Escherichia coli, UniProt Q5U7L7).
T3 construct: made in house
Nature of the test: Inhibition of VIM-2 (UV-vis kinetics). Type of test: biochemical. The conditions noted are these: 25 °C, Tris-HCl pH 7.0, 30 min pre-incubation; read-out: IC50 against VIM-2.
From the text: as §1, §2

The mark [1] stands for this setting: 25 °C, Tris-HCl pH 7.0, 30 min pre-incubation.

T2 sequence (O31272 28-255): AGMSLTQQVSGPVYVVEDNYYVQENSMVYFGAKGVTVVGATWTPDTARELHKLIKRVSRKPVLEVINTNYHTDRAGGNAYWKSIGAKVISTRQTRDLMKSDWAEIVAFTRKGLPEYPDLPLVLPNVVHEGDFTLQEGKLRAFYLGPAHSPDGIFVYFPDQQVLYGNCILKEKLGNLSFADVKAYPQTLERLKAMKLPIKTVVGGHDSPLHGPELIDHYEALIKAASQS

Turning to `O=C(O)C(S)c1ccccc1` (single isomer, unassigned) [S-isomer, thiomandelic acid], on MβLs, the Ki was 1280 nM.

In the case of `O=C(CSc1nnc(-c2ccccc2O)[nH]1)Nc1ccccc1Cl` [Compound 1], the IC50 is 960 ± 70 nM on NDM-1 (setting [1]), 32 nM against ImiS and greater than 1 mM at VIM-2.

For the molecule `O=C(CSc1nnc(-c2ccccc2O)[nH]1)Nc1cccc(Cl)c1` [Compound 2], the IC50 at NDM-1 (setting [1]) was 170 ± 20 nM; at NDM-1 (value in nM), 170 nM; against ImiS, 45 ± 2 nM; at VIM-2, greater than 1 mM.

With `O=C(CSc1nnc(-c2ccccc2O)[nH]1)Nc1ccc(Cl)cc1` [Compound 3], the IC50 at NDM-1 (setting [1]) is 370 ± 50 nM; on ImiS, 51 ± 6 nM; on VIM-2, greater than 1 mM.

With `O=C(CSc1nnc(-c2ccccc2O)[nH]1)Nc1ccc(Cl)c(Cl)c1` [Compound 4], the IC50 is greater than 1e+06 nM at NDM-1 (setting [1]), 270 ± 20 nM against ImiS and greater than 1 mM at VIM-2.

Consider `O=C(CSc1nnc(-c2ccccc2O)[nH]1)Nc1ccc(Cl)cc1Cl` [Compound 5], for which the half-maximal inhibitory concentration (IC50) on NDM-1 (setting [1]) is greater than 1e+06 nM; against ImiS, 160 ± 30 nM; on VIM-2, greater than 1 mM.

With `O=C(CSc1nnc(-c2ccccc2O)[nH]1)Nc1ccc(Cl)cc1[N+](=O)[O-]` [Compound 6], the values for the IC50 at NDM-1 (setting [1]), against ImiS and on VIM-2 were greater than 1e+06 nM, 780 ± 80 nM and greater than 1 mM, respectively.

As to `O=C(CSc1nnc(-c2ccccc2O)[nH]1)Nc1cc(Cl)ccc1[N+](=O)[O-]` [Compound 7], the IC50 is greater than 1e+06 nM at NDM-1 (setting [1]), 200 ± 40 nM on ImiS and greater than 1 mM at VIM-2.

For the molecule `O=C(CSc1nnc(-c2ccccc2O)[nH]1)Nc1ccc([N+](=O)[O-])cc1Cl` [Compound 8], the results for the IC50 at NDM-1 (setting [1]), against ImiS and at VIM-2 were greater than 1e+06 nM, 260 ± 30 nM and greater than 1 mM, respectively.

For the molecule `O=C(CSc1nnc(-c2ccccc2O)[nH]1)Nc1ccccc1F` [Compound 9], the IC50 was greater than 1e+06 nM on NDM-1 (setting [1]), 72 ± 5 nM on ImiS and greater than 1 mM on VIM-2. The Ki on ImiS was found to be 74 nM. Further, the “Inhibition mode against ImiS” value at ImiS (imipenem as substrate) was “mixed inhibitors”.

`O=C(CSc1nnc(-c2ccccc2O)[nH]1)Nc1cccc(F)c1` [Compound 10]: the IC50 on NDM-1 (setting [1]) was greater than 1e+06 nM; on ImiS it was 980 ± 40 nM; at VIM-2 it was greater than 1 mM.

As to `O=C(CSc1nnc(-c2ccccc2O)[nH]1)Nc1ccc(F)cc1` [Compound 11], the IC50 on NDM-1 (setting [1]) is greater than 1e+06 nM; on ImiS, greater than 50000 nM; at VIM-2 it was greater than 1 mM. The “Inhibitory activity against ImiS (in words)” value at ImiS (imipenem as substrate) is reported as “nearly had no inhibitory activity”.

Regarding `O=C(CSc1nnc(-c2ccccc2O)[nH]1)Nc1c(F)cccc1F` [Compound 12], the IC50 was greater than 1e+06 nM on NDM-1 (setting [1]), 15600 ± 3000 nM at ImiS and 0.0389 ± 0.005 mM on VIM-2.

For the molecule `O=C(CSc1nnc(-c2ccccc2O)[nH]1)Nc1ccc(OC(F)(F)F)cc1` [Compound 13], the values for the IC50 on NDM-1 (setting [1]), at ImiS and at VIM-2 were greater than 1e+06 nM, 230 ± 90 nM and 0.0028 ± 0.0003 mM, respectively. The molecule also had a Ki at ImiS of 270 nM. The “Inhibition mode against ImiS” value on ImiS (imipenem as substrate) was “mixed inhibitors”.

Consider `O=C(O)C(S)c1ccccc1` (centres unmarked) [rthiomandelic acid, thiomandelic acid], for which, at MβLs, the Ki was 90 nM.

As a reminder, the Ki is the equilibrium dissociation constant of an inhibitor or competing ligand from its target. For orientation: IC50 means the point on the concentration scale where inhibition reaches its midpoint.
